Structures are written as SMILES. Read-outs that look alike come from different tables or passages of the source. Bounds are passed on as bounds.

The text below walks through data of patent US20200377477A1, “DEGRADERS OF EGFR AND METHODS OF USE THEREOF” (DANA-FARBER CANCER INSTITUTE, INC., priority 2018, published 2020).

The target of assay [1] is T1, recombinant EGFR T790M/L858R kinase (Homo sapiens, UniProt P00533, L858R/T790M).
T1 construct: Constructs spanning residues 696-1022 of the human EGFR; GST (cleaved yes); made in house; host or cells: Sf9 insect cells
The experiment in a line: HTRF-based EGFR biochemical assay. Here is the method: Constructs spanning residues 696-1022 of the human EGFR (including wild type and L858R, L858R/T790M, T790M, and T790M/V948R mutant sequences) were prepared in a GST-fusion format using the pTriEX system (Novagen) for expression in Sf9 insect cells essentially as described (Yun et al., PNAS 105, 2070-2075 (2008); Yun et al., Cancer Cell 11, 217-227 (2007)). EGFR kinase proteins were purified by glutathione-affinity chromatography followed by size-exclusion chromatography after cleavage with TEV or thrombin to remove the GST fusion partner following established procedures. (Yun 2008; Yun 2007).
EGFR biochemical assays were carried out using a homogeneous time-resolved fluorescence (HTRF) assay as described previously. The reaction mixtures contained 1 μM biotin-Lck-peptide substrate, wild type or mutant EGFR enzyme in reaction buffer (50 mM HEPES pH 7. 1, 10 mM MgCl2, 0.01% BSA, 1 mM TCEP and 0.1 mM Na3VO4) at a final volume of 10 μL. Enzyme concentrations were adjusted to accommodate varying kinase activity and ATP concentrations (0.2-0.4 nM L858R/T790M; or 2-4 nM L858R, or 2-4 nM T790M, or nM WT). All reactions were carried out at room temperature in white ProxiPlate™ 384-well Plus plates (PerkinElmer) and were quenched with 5 μL of 0.2 M EDTA at 60 min. Five μL per well of the detection reagent containing 2.5 ng PT66K (Cis-bio) and 0.05 μg SAXL (Prozyme) were added, and the plates were then incubated at room temperature for 1 hour and read with an EnVision plate reader.
Background: In TR-FRET formats the signal depends on donor and acceptor labels being close together.

For assay [2], the target named is T2, EGFR T790M/L858R Ba/F3 cell line (Homo sapiens, UniProt P00533, T790M/L858R, cells depend on it).
T2 construct: The constructs were shuttled into the retroviral vector JP1540 using the BD Creator™ System (BD Biosciences)
The experiment in a line: Ba/F3 cell proliferation (MTS assay), EGFR T790M/L858R. It is filed as cell-based, murine. The protocol:
The EGFR mutant L858R, Del E746_A750, L858R/T790M, DelE746_A750/T790M, L858R/T790M/C797S and Del/T790M/C797S Ba/F3 cells were previously described (Zhou e al., Nature 462, (2009), 1070-1074). All cell lines were maintained in RPMI 1640 (Cellgro; Mediatech Inc., Hemdon, Calif.) supplemented with 10% FBS 100 units/mL penicillin, 100 units/mL streptomycin, and 2 mM glutamine. L858R cells were maintained in ACL-4 media (Invitrogen, Carlsbad, Calif.) supplemented with 5% FBS, 100 units/mL penicillin, 100 units/mL streptonycin, and 2 mM glutamine. The EGFR I941R mutation was introduced via site directed mutagenesis using the Quick Change Site-Directed Mutagenesis kit (Stratagene; La Jolla, Calif.) according to the manufacturer's instructions. All constructs were confirmed by DNA sequencing. The constructs were shuttled into the retroviral vector JP1540 using the BD Creator™ System (BD Biosciences). Ba/F3 cells were infected with retrovirus and according to standard protocols, as described previously (Zhou 2009). Stable clones were obtained by selection in puromycin (2 μg/ml).
Growth and inhibition of growth was assessed by MTS assay and was performed according to previously established methods (Zhou 2009). The MTS assay is a colorimetric method for determining the number of viable cells that is based on the bioreduction of MTS by cells to a formazan product that is soluble in cell culture medium and can be detected spectrophotometrically. […] All experimental points were set up in six wells and all experiments were repeated at least three times. […] The curves were fitted using a non-linear regression model with a sigmoidal dose response.

[3] abbreviates: absence of cetuximab, read-out: Ba/F3 cellular activity (EC50) T790M/L858R.
The mark [4] stands for this setting: read-out: Ba/F3 cellular activity (EC50) T790M/L858R + Cetuximab, presence of 1 μg/mL cetuximab.

T2 sequence (P00533 whole entry T790M/L858R): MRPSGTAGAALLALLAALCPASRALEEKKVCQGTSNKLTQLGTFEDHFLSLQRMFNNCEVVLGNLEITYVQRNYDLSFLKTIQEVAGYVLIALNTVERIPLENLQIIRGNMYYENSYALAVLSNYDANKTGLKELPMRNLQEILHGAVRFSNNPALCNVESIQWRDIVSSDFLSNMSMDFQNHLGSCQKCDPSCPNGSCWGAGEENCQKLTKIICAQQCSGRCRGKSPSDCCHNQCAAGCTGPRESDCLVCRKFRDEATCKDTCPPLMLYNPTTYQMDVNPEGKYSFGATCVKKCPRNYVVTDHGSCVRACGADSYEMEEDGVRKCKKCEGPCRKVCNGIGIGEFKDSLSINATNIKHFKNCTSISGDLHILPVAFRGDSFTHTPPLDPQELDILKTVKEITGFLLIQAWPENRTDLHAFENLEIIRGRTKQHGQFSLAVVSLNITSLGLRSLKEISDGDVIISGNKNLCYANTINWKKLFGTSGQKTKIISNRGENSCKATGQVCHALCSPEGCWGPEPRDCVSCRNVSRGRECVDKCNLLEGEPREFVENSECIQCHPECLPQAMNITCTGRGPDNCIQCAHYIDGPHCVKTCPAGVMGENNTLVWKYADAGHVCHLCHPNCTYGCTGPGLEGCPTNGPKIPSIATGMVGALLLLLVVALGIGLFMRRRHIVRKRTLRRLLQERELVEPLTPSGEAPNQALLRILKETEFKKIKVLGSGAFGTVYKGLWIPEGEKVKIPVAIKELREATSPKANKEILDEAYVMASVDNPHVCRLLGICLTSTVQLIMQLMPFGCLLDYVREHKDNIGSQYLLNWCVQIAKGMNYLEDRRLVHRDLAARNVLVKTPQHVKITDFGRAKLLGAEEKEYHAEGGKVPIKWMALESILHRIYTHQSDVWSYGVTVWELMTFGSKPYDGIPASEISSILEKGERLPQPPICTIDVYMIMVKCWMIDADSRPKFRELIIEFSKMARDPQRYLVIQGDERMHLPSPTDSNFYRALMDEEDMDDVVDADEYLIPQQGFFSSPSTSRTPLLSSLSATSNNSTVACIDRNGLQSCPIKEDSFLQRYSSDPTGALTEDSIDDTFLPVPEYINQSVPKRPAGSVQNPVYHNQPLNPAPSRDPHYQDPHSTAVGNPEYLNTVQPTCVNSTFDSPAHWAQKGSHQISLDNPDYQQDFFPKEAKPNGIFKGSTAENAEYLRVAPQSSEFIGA
T1 sequence (P00533 696-1022 T790M/L858R): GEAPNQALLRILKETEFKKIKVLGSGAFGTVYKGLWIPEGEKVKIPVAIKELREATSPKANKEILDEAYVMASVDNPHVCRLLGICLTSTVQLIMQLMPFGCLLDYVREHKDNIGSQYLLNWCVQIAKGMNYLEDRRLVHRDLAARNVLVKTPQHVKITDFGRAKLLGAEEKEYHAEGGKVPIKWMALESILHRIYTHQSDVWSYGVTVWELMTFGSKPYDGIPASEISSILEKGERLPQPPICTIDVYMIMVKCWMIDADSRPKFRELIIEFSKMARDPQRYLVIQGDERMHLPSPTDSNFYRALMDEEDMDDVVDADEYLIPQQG

Consider `C=CC(=O)Nc1ccc2c(c1)N(Cc1ccccc1)C(=O)c1cc(-c3ccc4[nH]ccc4c3)ccc1N2` [I-1], for which the IC50 – broadly, the concentration needed to halve the response being measured – in assay [1] was at least 750 nM. Moreover, the values for the EC50 in assay [2] (setting [3]) and in assay [2] (setting [4]) were at least 750 nM and 500 to 750 nM, respectively.

`O=C(CCl)Nc1ccc2c(c1)N(Cc1ccccc1)C(=O)c1cc(-c3ccc4[nH]ccc4c3)ccc1N2` [I-2]: the IC50 in assay [1] was at least 750 nM. For the same molecule, the EC50 in assay [2] (setting [3]) and in assay [2] (setting [4]) was under 250 nM in each case.

For the molecule `C=CC(=O)Nc1ccc2c(c1)N(Cc1ccccc1)C(=O)c1cc(-c3ccc(N4CCNCC4)cc3)ccc1N2` [I-3, N-(10-Benzyl-11-oxo-2-(4-(piperazin-1-yl)phenyl)-10,11-dihydro-5H-dibenzo[b,e][1,4]diazepin-8-yl)acrylamide], the IC50 in assay [1] is at least 750 nM. The EC50 in assay [2] (setting [3]) and in assay [2] (setting [4]) was at least 750 nM in each case.

For the molecule `O=C1c2cc(Br)ccc2Nc2ccc(F)cc2N1Cc1ccccc1` [I-a, 10-Benzyl-2-bromo-8-fluoro-5,10-dihydro-11H-dibenzo[b,e][1,4]diazepin-11-one], the EC50 in assay [2] (setting [3]) is at least 750 nM; in assay [2] (setting [4]), 250 to 500 nM.
